Measured values reported in patent US20210177023A1, “COMPOUNDS FOR SWEETNESS ENHANCEMENT” (International Flavors & Fragrances Inc., priority 2019, published 2021).

Assays:
Format in all cases: in vivo, human
[1] = Taste and smell of the compound alone
Method: A sucrose solution (4%) was prepared in water. Each of ligustrosidic acid and 2′-hydroxy ligustrosidic acid solutions of different concentrations was prepared in ethanol solution in water (50%). Ligustrosidic acid and 2′-hydroxy ligustrosidic acid were evaluated at 1 and 200 ppm, respectively. […] A sucrose solution (4%) was prepared in water. Each of verbascoside and isoverbascoside solutions of different concentrations was prepared in ethanol solution in water (50%). Verbascoside and isoverbascoside were evaluated at 1 and 200 ppm, respectively.

[2] = Enhancement of Luo Han Guo sweetness (flavor profile of Luo Han Guo solution with added substance); details: Luo Han Guo solution (120 ppm), over the levels tested
Method: A Luo Han Guo (Biovittoria Ltd., New Zealand) solution was prepared in water (120 ppm). Ligustrosidic acid and 2′-hydroxy ligustrosidic acid solutions were prepared as above (EXAMPLE II). The flavor profile of the Luo Han Guo solution with added ligustrosidic acid and 2′-hydroxy ligustrosidic acid is reported in the following: The effect of botanical extract such as Chaenomeles speciosa leave extract on sweetness was examined. Solutions of Chaenomeles speciosa leave extract containing ligustrosidic acid (0.61%), 2′-hydroxy ligustrosidic acid (0.62%), verbascoside (0.69%) and isoverbascoside (0.21%) were prepared in ethanol solution in water (50%) to obtain a series of concentrations ranging from 1 to 1000 ppm. Solutions of sucrose (4%) and Luo Han Guo (120 ppm) were prepared as above (EXAMPLE II and III). In addition, solutions of fructose (3.4%), Reb A (GLG Life Tech Corporation, Canada) (90 ppm) and GSG (Glucosyl Steviol Glucosides, GLG Life Tech Corporation, Canada) (200 ppm) were also prepared in water. The Luo Han Guo solution (120 ppm) with the addition of various amount of Chaenomeles speciosa leave extract was evaluated. The flavor profile is as follows: A Luo Han Guo (Biovittoria Ltd., New Zealand) solution was prepared in water (120 ppm). Verbascoside and isoverbascoside solutions were prepared as above (EXAMPLE XIII). The flavor profile of the Luo Han Guo solution with added verbascoside and isoverbascoside is reported in the following: […]

[3] = Enhancement of sucrose sweetness (flavor profile of sucrose solution with added substance); details: sucrose solution (4%); for overall effect when used with sucrose (summary in text): over the levels tested; for effect observed in sucrose solution: compound 5 ppm
Method: A sucrose solution (4%) was prepared in water. Each of ligustrosidic acid and 2′-hydroxy ligustrosidic acid solutions of different concentrations was prepared in ethanol solution in water (50%). Ligustrosidic acid and 2′-hydroxy ligustrosidic acid were evaluated at 1 and 200 ppm, respectively. […] Solutions of Chaenomeles speciosa leave extract containing ligustrosidic acid (0.61%), 2′-hydroxy ligustrosidic acid (0.62%), verbascoside (0.69%) and isoverbascoside (0.21%) were prepared in ethanol solution in water (50%) to obtain a series of concentrations ranging from 1 to 1000 ppm. Solutions of sucrose (4%) and Luo Han Guo (120 ppm) were prepared as above (EXAMPLE II and III). In addition, solutions of fructose (3.4%), Reb A (GLG Life Tech Corporation, Canada) (90 ppm) and GSG (Glucosyl Steviol Glucosides, GLG Life Tech Corporation, Canada) (200 ppm) were also prepared in water. The sucrose solution (4%) with the addition of various amount of Chaenomeles speciosa leave extract was evaluated. […] Each of verbascoside and isoverbascoside solutions of different concentrations was prepared in ethanol solution in water (50%). Verbascoside and isoverbascoside were evaluated at 1 and 200 ppm, respectively.

Molecule | taste and smell of the compound itself ([1]; evaluated at 200 ppm) | overall effect when used with Luo Han Guo (summary in text) [2] | overall effect when used with sucrose (summary in text) [3] | taste and smell of the compound itself ([1]; evaluated at 1 ppm) | effect observed in sucrose solution [3] | further results
2′-hydroxy ligustrosidic acid | devoid of taste and smell | strong effect in sweetness enhancement | strong effect in sweetness enhancement |  |  | 
COC(=O)C1=COC(OC2OC(CO)C(O)C(O)C2O)C(=CC(=O)O)C1CC(=O)OCCc1ccc(O)cc1 (stereo in doubt) [Ligustrosidic Acid, [3-(carboxymethylene)-2-(β-D-glucopyranosyloxy)-3,4-dihydro-5-(methoxycarbonyl)]-2H-pyran-4-acetic acid-α-[2-(4-hydroxyphenyl)ethyl] ester] |  |  |  | devoid of taste and smell |  | overall effect when used with Luo Han Guo (summary in text) ([2]; listed as Ligustrosidic acid): particularly strong effect; overall effect when used with Luo Han Guo (summary in text) ([2]; listed as ligustrosidic acid): enhanced overall sweetness, body and mouthfeel; overall effect when used with sucrose (summary in text) ([3]; listed as Ligustrosidic acid): particularly strong effect; overall effect when used with sucrose (summary in text) ([3]; listed as ligustrosidic acid): enhanced overall sweetness, body and mouthfeel
C[C@@H]1O[C@@H](O[C@@H]2[C@@H](O)[C@H](OCCc3ccc(O)c(O)c3)O[C@H](COC(=O)/C=C/c3ccc(O)c(O)c3)[C@H]2O)[C@H](O)[C@H](O)[C@H]1O [Isoverbascoside, isoverbascoside] | devoid of taste and smell | enhanced overall mouthfeel and suppressed Luo Han Guo's lingering off-taste | enhanced overall mouthfeel |  |  | 
C[C@@H]1O[C@@H](O[C@@H]2[C@@H](O)[C@H](OCCc3ccc(O)c(O)c3)O[C@H](CO)[C@H]2OC(=O)/C=C/c2ccc(O)c(O)c2)[C@H](O)[C@H](O)[C@H]1O [Verbascoside, (E)-2-(3,4-dihydroxyphenyl)ethyl 3-O-(6-deoxy-α-L-mannopyranosyl)-4-[3-(3,4-dihydroxyphenyl)-2-propenoate]-β-D-Glucopyranoside] |  | particular effect in sweetness enhancement | particular effect in sweetness enhancement | devoid of taste and smell |  | 
C/C=C1/[C@H](O[C@@H]2O[C@H](CO)[C@@H](O)[C@H](O)[C@H]2O)OC=C(C(=O)OC)[C@H]1CC(=O)OCCc1ccc(O)cc1 [ligustroside] |  |  |  |  | Some mouthfeel, slight drying or slightly fruity effect | 
C/C=C1\C(OC2OC(CO)C(O)C(O)C2O)OC=C(C(=O)OCCc2ccc(O)c(O)c2)C1CC(=O)OCCc1ccc(O)c(O)c1 (stereo not shown) [multifloroside] |  |  |  |  | Some mouthfeel, slight drying or slightly fruity effect | 
